Measured values as given in ChEMBL document CHEMBL3507680, “University of Dundee, Gates Library screen for HepG2 cell viability”.

Assay: Human HepG2 cell viability assay in 384 well format
Assay type: toxicity, cell-based
Set-up: dose 125 nL, time 70.5 hour; cytotoxicity at 70.5 h: concentration not given beside the values
Settings: HepG2 cells, read-out: Inhibition

For `CCC(C)n1cnc(S(=O)(=O)N(Cc2cccnc2)C(C)C)c1` (configuration not stated), the cytotoxicity at 70.5 h was 3.97%.
For `CCC(C)n1cnc(S(=O)(=O)N(C)c2cccnc2N(C)C)c1` (configuration not stated), the cytotoxicity at 70.5 h was -7.28%.
`COc1ccc2c(c1)C(NCCc1ccccn1)CCCO2` (configuration not stated) showed a cytotoxicity at 70.5 h of 16.8%.
`O=c1[nH]nc(CNc2ncc(Cl)cn2)[nH]1` showed a cytotoxicity at 70.5 h of 28.8%.
`O=C(CN1CCCc2c(F)cc(Br)cc21)N1CCN(C(=O)C2CC2)CC1` showed a cytotoxicity at 70.5 h of 17.8%.
Compound `COCCN(CCOC)C(=O)NC1CCCCC1` has a cytotoxicity at 70.5 h of -4.8%.
Compound `COCc1nc(CNc2cccc(-c3nc(C)c(C)o3)c2)cs1` has a cytotoxicity at 70.5 h of -16.1%.
`CC(C)c1cccc(-n2cc(O)c(C(=O)NCCCn3cccn3)n2)c1` gave a cytotoxicity at 70.5 h of -5.65%.
For `COc1ccc2c(c1)C(NCCc1ncc(C)s1)CCCO2` (configuration not stated), the cytotoxicity at 70.5 h was -7.84%.
`COCC(=O)NCCSCCOc1cccc(Br)c1` gave a cytotoxicity at 70.5 h of 32%.
Compound `CC(C)(O)CN1CCN(C(=O)COCC2CC2)CC1` has a cytotoxicity at 70.5 h of 2.07%.
For `O=C(CCCc1ccccn1)NCC(O)c1c(F)cccc1F` (configuration not stated), the cytotoxicity at 70.5 h was -1.43%.
Work on `Cc1nc(C2CCCN2C(=O)CN(C)Cc2ccccc2)no1` (configuration not stated) yielded a cytotoxicity at 70.5 h of -2.86%.
`CC(c1cccnc1)N1CCN(CCO)CC1` (configuration not stated) gave a cytotoxicity at 70.5 h of 7.45%.
For `NC(=O)NC(CC(=O)NCCc1cccc(F)c1)c1ccccc1` (configuration not stated), the cytotoxicity at 70.5 h was -6.09%.
`NC(=O)NC(CC(=O)NCCc1ccc(F)cc1)c1ccccc1` (configuration not stated) gave a cytotoxicity at 70.5 h of 1.48%.
`CCC(O)CN(CC(=O)Nc1cc(C)no1)c1ccccc1` (configuration not stated) gave a cytotoxicity at 70.5 h of -3.59%.
In the case of `CC(C)(C)C(O)CN1CCN(C(=O)COCC2CC2)CC1` (configuration not stated), the cytotoxicity at 70.5 h is reported as 1.65%.
Compound `CC(C)(O)CN1CCN(C(=O)COCC(F)(F)F)CC1` has a cytotoxicity at 70.5 h of 15.1%.
Compound `COc1cccc(SCC(=O)N2CCCC(N3CCCC3=O)C2)c1` (configuration not stated) has a cytotoxicity at 70.5 h of -1.58%.
For `O=C(CSc1ccccc1)N1CCC(N2CCCCC2=O)CC1`, the cytotoxicity at 70.5 h was 19%.
Compound `CCN(Cc1ccoc1)C(C(N)=O)c1ccc(Br)cc1` (configuration not stated) has a cytotoxicity at 70.5 h of 16.2%.
Compound `CC(C)C(O)CNC(=O)CCCc1ccccn1` (configuration not stated) has a cytotoxicity at 70.5 h of 2.25%.
In the case of `CCCc1ccc(S(=O)(=O)NC2(CC(N)=O)CCC2)cc1`, the cytotoxicity at 70.5 h is reported as 1.66%.
With `Cc1[nH]ncc1C(C)NCc1cccnc1` (configuration not stated) the cytotoxicity at 70.5 h was 5.33%.
With `CC(=O)Nc1ccc(C(=O)N2CCOc3nc(C)ccc32)cc1` the cytotoxicity at 70.5 h was -0.0601%.
`COCC(=O)NCCc1ccc(Cl)s1` showed a cytotoxicity at 70.5 h of -9.93%.
In the case of `O=C(CN1CCN(CCO)CC1)NC(C1CC1)C1CC1`, the cytotoxicity at 70.5 h is reported as -5.18%.
Compound `CCN(Cc1ccc(Cl)s1)S(=O)(=O)CC` has a cytotoxicity at 70.5 h of 0.4%.
In the case of `CCN(Cc1ccc(Cl)s1)S(=O)(=O)CCOC`, the cytotoxicity at 70.5 h is reported as -13.3%.
Work on `c1csc(CCN2CCCC2c2noc(C3CC3)n2)c1` (configuration not stated) yielded a cytotoxicity at 70.5 h of -7.22%.
`Cc1nc(C2CCCN2CCc2cccs2)no1` (configuration not stated) showed a cytotoxicity at 70.5 h of -10.4%.
`CC(C(=O)N1CCc2sccc2C1)N1CCCN(C2CC2)CC1` (configuration not stated) gave a cytotoxicity at 70.5 h of -10.7%.
`Cc1nc(C2CCCN2CCc2ccccn2)no1` (configuration not stated) showed a cytotoxicity at 70.5 h of -5.46%.
With `Cn1ccc(C(=O)NCc2cccc(Cn3ccnc3)c2)cc1=O` the cytotoxicity at 70.5 h was -4.36%.
`Cc1nccn1Cc1cccc(CNC(=O)c2ccn(C)c(=O)c2)c1` gave a cytotoxicity at 70.5 h of 13.1%.
`Cc1ccc2nc(NCCCN3CCCCCC3=O)n(C)c(=O)c2c1` gave a cytotoxicity at 70.5 h of -20%.
`Cc1nc(NC(=O)C(C)S(C)(=O)=O)sc1Cc1ccc(F)cc1` (configuration not stated) gave a cytotoxicity at 70.5 h of 7.99%.
In the case of `Cc1ccc(Cc2sc(NC(=O)C(C)S(C)(=O)=O)nc2C)cc1` (configuration not stated), the cytotoxicity at 70.5 h is reported as -3.98%.
In the case of `Cn1nc(C(=O)NCc2cccc(Cn3ccnc3)c2)ccc1=O`, the cytotoxicity at 70.5 h is reported as 3.47%.
In the case of `CC(=O)NC1CCCN(C(=O)Nc2nnc(C(C)C)s2)C1` (configuration not stated), the cytotoxicity at 70.5 h is reported as 0.76%.
`CC(C(=O)N1CCc2sccc2C1)N1CCC(N2CCCC2)CC1` (configuration not stated) gave a cytotoxicity at 70.5 h of 0.91%.
With `COc1cc(OC)c(CNC(=O)NCc2ccc(C#N)cc2)c(OC)c1` the cytotoxicity at 70.5 h was 3.35%.
Compound `N#Cc1ccc(NC2CCN(c3ncccn3)CC2)cc1Cl` has a cytotoxicity at 70.5 h of 7.18%.
Compound `Cc1cc(C(=O)NS(C)(=O)=O)ccc1I` has a cytotoxicity at 70.5 h of -4.1%.
`Cn1ncnc1NS(=O)(=O)c1ccc(F)cc1` showed a cytotoxicity at 70.5 h of -0.583%.
Compound `Cc1c(CNC(=O)C2CCCN2C(=O)C2CC2)oc2ccccc12` (configuration not stated) has a cytotoxicity at 70.5 h of -7.22%.
`CCc1nsc(NC2CCOC3(CCCC3)C2)n1` (configuration not stated) gave a cytotoxicity at 70.5 h of 1.42%.
`CC(C)c1nnc(CNc2nc(-c3cccnc3)nc3c2CCC3)n1C` gave a cytotoxicity at 70.5 h of -1.97%.
With `COC(=O)CCN1CCC(NC(=O)OC(C)(C)C)CC1` the cytotoxicity at 70.5 h was 1.05%.
For `CCOCc1nnc(NCc2cccc(C)c2)o1`, the cytotoxicity at 70.5 h was -3.75%.
Work on `CS(=O)(=O)N1CCC(Nc2ccc(C#N)c(C(F)(F)F)c2)CC1` yielded a cytotoxicity at 70.5 h of 8.33%.
With `Cc1ncc(CN(C)CC(O)c2ccc(OC(F)(F)F)cc2)s1` (configuration not stated) the cytotoxicity at 70.5 h was -3.36%.
`Cc1occc1CNC(=O)C1CCCN1C(=O)C1CC1` (configuration not stated) gave a cytotoxicity at 70.5 h of -6.76%.
Compound `CCc1nc(C2CCCN2CCc2cccs2)no1` (configuration not stated) has a cytotoxicity at 70.5 h of 17.3%.
`Cc1ccc2cccc(S(=O)(=O)N(C)C3CCCN(C)C3)c2n1` (configuration not stated) showed a cytotoxicity at 70.5 h of 0.353%.
With `CCc1nccn1CC(=O)Nc1cccc(C(=O)N(C)C)c1` the cytotoxicity at 70.5 h was 7.42%.
For `COC(=O)CNC(=O)CCCn1cnc2ccccc2c1=O`, the cytotoxicity at 70.5 h was -1.4%.
In the case of `O=C(CCn1c(=O)oc2ccccc21)NCC(O)c1ccc(Cl)cc1` (configuration not stated), the cytotoxicity at 70.5 h is reported as 9.7%.
For `Cc1cc(CN(C)C(=O)CN2CCCCCC2=O)no1`, the cytotoxicity at 70.5 h was -10.3%.
`Cc1cc(NC(=O)Cc2ccc3c(c2)OCO3)n(C)n1` gave a cytotoxicity at 70.5 h of -0.417%.
For `O=C(CC1CCCO1)NCCCC(=O)Nc1ccc(Cl)cc1` (configuration not stated), the cytotoxicity at 70.5 h was -7.07%.
Work on `CCOC(C)C(=O)NCCNS(C)(=O)=O` (configuration not stated) yielded a cytotoxicity at 70.5 h of -6.01%.
`O=C(Cc1cccc(F)c1)NCCNS(=O)(=O)C1CCCC1` gave a cytotoxicity at 70.5 h of -12.5%.
With `O=C(Cc1ccccc1)NCCNS(=O)(=O)C1CCCCC1` the cytotoxicity at 70.5 h was -2.64%.
Compound `CCCS(=O)(=O)NCCc1ncc(C)s1` has a cytotoxicity at 70.5 h of -11.1%.
With `CN(C)S(=O)(=O)N1CCN(C(=O)OC(C)(C)C)CC12CCCCC2` the cytotoxicity at 70.5 h was -6.87%.
With `CC(C)(NS(C)(=O)=O)c1nc(-c2ccc(F)cc2Cl)no1` the cytotoxicity at 70.5 h was -6.02%.
In the case of `CC(C)(NS(C)(=O)=O)c1nc(-c2cccc(Cl)c2)no1`, the cytotoxicity at 70.5 h is reported as -4.4%.
In the case of `Cn1ccc(NCc2cc3cc(F)ccc3o2)n1`, the cytotoxicity at 70.5 h is reported as -4.66%.
`CCN(CC)S(=O)(=O)N1CCCN(CC2CCCO2)CC1` (configuration not stated) showed a cytotoxicity at 70.5 h of 23.8%.
With `CC1c2ccsc2CCN1Cc1cc2c(cc1O)OCO2` (configuration not stated) the cytotoxicity at 70.5 h was -5.73%.
In the case of `OC(CNC1CCOCC1)c1cccc(OCc2ccccc2)c1` (configuration not stated), the cytotoxicity at 70.5 h is reported as -10.5%.
`CNC(=O)NCC(CO)Cc1cccc(OC(F)(F)F)c1` (configuration not stated) showed a cytotoxicity at 70.5 h of -8.42%.
`CCN(CC)c1ncc(CNCC2CCCn3ccnc32)s1` (configuration not stated) gave a cytotoxicity at 70.5 h of 8.16%.
Compound `Cc1ncc(CNCC(=O)NC2CCCCC2)n1-c1ccccc1` has a cytotoxicity at 70.5 h of 9.11%.
In the case of `Cc1ccc(C)c(C(O)CN(C)Cc2nnc3ccccn23)c1` (configuration not stated), the cytotoxicity at 70.5 h is reported as 9.37%.
For `CC1CCCN(c2ccccc2OCC(=O)NC2CCOCC2)C1` (configuration not stated), the cytotoxicity at 70.5 h was 28.3%.
Work on `O=C(CCc1ccsc1)N(Cc1ccccn1)C1CC1` yielded a cytotoxicity at 70.5 h of -2.46%.
With `CCC(C)NC(=O)c1ccc(-c2ccco2)[nH]c1=O` (configuration not stated) the cytotoxicity at 70.5 h was -5.06%.
Compound `CC(COCC(F)(F)F)NC(=O)c1ccc(-c2ccco2)[nH]c1=O` (configuration not stated) has a cytotoxicity at 70.5 h of -1.67%.
`CC(C)NC(=O)CNC(=O)C12CCC(=O)N1c1cc(Cl)ccc1S2` (configuration not stated) showed a cytotoxicity at 70.5 h of -0.426%.
`CC(C)c1ccc(CS(=O)(=O)Cc2nc(N)nc(N(C)C)n2)cc1` gave a cytotoxicity at 70.5 h of -6.09%.
With `COCC(=O)N1CCN(C(=O)CCc2ccsc2)CC1` the cytotoxicity at 70.5 h was -3.39%.
`CC1CCCN(c2ccccc2OCC(=O)N2CCOCC2)C1` (configuration not stated) gave a cytotoxicity at 70.5 h of 17.5%.
In the case of `Cc1nc(-c2ccccc2)sc1CSCCS(C)(=O)=O`, the cytotoxicity at 70.5 h is reported as 1.82%.
Work on `Cc1n[nH]c2ncc(CNC3CCCN(c4ncccn4)C3)cc12` (configuration not stated) yielded a cytotoxicity at 70.5 h of 0.0496%.
